From PubChem BioAssay AID330 (DTP/NCI, 2004)
Where “and” joins values, the source holds several entries; their conditions need not be identical. Equal entries are not always repeated. Toxic doses and inconclusive results are not listed.

System: P388 leukemia ip, CD2F1 mice, survival T/C
Experiment: NCI In Vivo Anticancer Drug Screen. Data for tumor model P388 Leukemia (intraperitoneal) in CD2F1 (CDF1) mice
Settings: endpoint: median survival time, higher = longer survival
In short: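 Mice carrying the transplanted tumor received test compound or vehicle. Survival was recorded in each group, and the value is the treated-group measurement divided by that of the vehicle-treated control group.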

[1] = dose: 50.0 mg/kg/injection, schedule: Q01DX009 (ip), vehicle: water
[2] = dose: 200.0 mg/kg/injection, schedule: Q01DX009 (ip), vehicle: water
[3] = dose: 100.0 mg/kg/injection, schedule: Q01DX009 (ip), vehicle: saline
[4] = dose: 200.0 mg/kg/injection, schedule: Q01DX009 (ip), vehicle: saline

Compound: COc1cc(C(=O)OC(CN2CCOCC2)Cn2nnc3c(OC)c(OC)c(OC)cc3c2=O)cc(OC)c1OC (stereo not drawn)
- T/C [1]: 100 % of control
- T/C (dose: 100.0 mg/kg/injection, schedule: Q01DX009 (ip), vehicle: water): 100 % of control
- T/C [2]: 108 % of control

Compound: CN1C(=O)/C(=C2\SC(=O)N(Cc3nc4ccccc4[nH]3)C2=O)c2cc(Br)ccc21
- T/C (dose: 100.0 mg/kg/injection, schedule: Q01DX001 (ip), vehicle: Klucel (hydroxypropylcellulose) (HPC)): 98 % of control
- T/C (dose: 200.0 mg/kg/injection, schedule: Q01DX001 (ip), vehicle: Klucel (hydroxypropylcellulose) (HPC)): 95 % of control
- T/C (dose: 400.0 mg/kg/injection, schedule: Q01DX001 (ip), vehicle: Klucel (hydroxypropylcellulose) (HPC)): 88 % of control

Compound: CSc1nc(COC(=O)NC(C)C)c(COC(=O)NC(C)C)n1Cc1ccccc1
- T/C (dose: 12.5 mg/kg/injection, schedule: Q01DX005 (ip), vehicle: saline with Tween-80): 98 % of control
- T/C (dose: 25.0 mg/kg/injection, schedule: Q01DX005 (ip), vehicle: saline with Tween-80): 101 % of control
- T/C (dose: 50.0 mg/kg/injection, schedule: Q01DX005 (ip), vehicle: saline with Tween-80): 100 % of control and 110 % of control
- T/C (dose: 100.0 mg/kg/injection, schedule: Q01DX005 (ip), vehicle: saline with Tween-80): 98 % of control and 111 % of control
- T/C (dose: 200.0 mg/kg/injection, schedule: Q01DX005 (ip), vehicle: saline with Tween-80): 116 % of control

Compound: C#CCNC1=CC(=O)CCC1
- T/C (dose: 60.0 mg/kg/injection, schedule: Q01DX005 (ip), vehicle: saline): 100 % of control
- T/C (dose: 120.0 mg/kg/injection, schedule: Q01DX005 (ip), vehicle: saline): 106 % of control
- T/C (dose: 240.0 mg/kg/injection, schedule: Q01DX005 (ip), vehicle: saline): 118 % of control

Compound: O=[N+]([O-])c1ccc(/C=N\Nc2ccc([N+](=O)[O-])cn2)cc1
- T/C [3]: 100 % of control
- T/C (dose: 100.0 mg/kg/injection, schedule: Q04DX003 (ip), vehicle: saline with Tween-80): 90 % of control
- T/C [4]: 115 % of control
- T/C (dose: 200.0 mg/kg/injection, schedule: Q04DX003 (ip), vehicle: saline with Tween-80): 104 % of control
- T/C (dose: 400.0 mg/kg/injection, schedule: Q01DX009 (ip), vehicle: saline): 105 % of control
- T/C (dose: 400.0 mg/kg/injection, schedule: Q04DX003 (ip), vehicle: saline with Tween-80): 109 % of control

Compound: C(=N\NC1=NCCN1)/c1ccncc1
- T/C (dose: 50.0 mg/kg/injection, schedule: Q01DX005 (ip), vehicle: saline): 100 % of control
- T/C (dose: 100.0 mg/kg/injection, schedule: Q01DX005 (ip), vehicle: saline): 94 % of control

Compound: CNc1ccccc1C(=O)N/N=C/C=C/c1ccccc1
- T/C (dose: 12.5 mg/kg/injection, schedule: Q01DX009 (ip), vehicle: saline with Tween-80): 102 % of control
- T/C (dose: 25.0 mg/kg/injection, schedule: Q01DX009 (ip), vehicle: saline with Tween-80): 105 % of control
- T/C (dose: 50.0 mg/kg/injection, schedule: Q01DX009 (ip), vehicle: saline with Tween-80): 104 % of control
- T/C (dose: 100.0 mg/kg/injection, schedule: Q01DX009 (ip), vehicle: saline with Tween-80): 118 % of control

Compound: O=C1c2ccccc2CC12OC2c1ccccc1 (stereo not drawn)
- T/C (dose: 25.0 mg/kg/injection, schedule: Q01DX009 (ip), vehicle: Klucel (hydroxypropylcellulose) (HPC)): 96 % of control
- T/C (dose: 50.0 mg/kg/injection, schedule: Q01DX009 (ip), vehicle: Klucel (hydroxypropylcellulose) (HPC)): 92 % of control
- T/C (dose: 100.0 mg/kg/injection, schedule: Q01DX009 (ip), vehicle: Klucel (hydroxypropylcellulose) (HPC)): 92 % of control
- T/C (dose: 200.0 mg/kg/injection, schedule: Q01DX009 (ip), vehicle: Klucel (hydroxypropylcellulose) (HPC)): 89 % of control
- T/C (dose: 400.0 mg/kg/injection, schedule: Q01DX009 (ip), vehicle: Klucel (hydroxypropylcellulose) (HPC)): 92 % of control

Compound: O=c1c2ccccc2nc(CN(CCCl)CCCl)n1-c1ccc(O)c(CN(CCCl)CCCl)c1
- T/C (dose: 100.0 mg/kg/injection, schedule: Q01DX001 (ip), vehicle: saline with Tween-80): 151 % of control
- T/C (dose: 200.0 mg/kg/injection, schedule: Q01DX001 (ip), vehicle: saline with Tween-80): 155 % of control
- T/C (dose: 400.0 mg/kg/injection, schedule: Q01DX001 (ip), vehicle: saline with Tween-80): 270 % of control

Compound: Cc1cc(NN=O)nc(C)n1
- T/C (dose: 3.12 mg/kg/injection, schedule: Q01DX009 (ip), vehicle: water): 98 % of control
- T/C (dose: 6.25 mg/kg/injection, schedule: Q01DX009 (ip), vehicle: water): 98 % of control
- T/C (dose: 12.5 mg/kg/injection, schedule: Q01DX009 (ip), vehicle: water): 98 % of control
- T/C (dose: 25.0 mg/kg/injection, schedule: Q01DX009 (ip), vehicle: water): 100 % of control and 101 % of control
- T/C [1]: 104 % of control and 106 % of control
- T/C [2]: 166 % of control

Compound: C/C=C/COc1ccccc1C=O
- T/C (dose: 50.0 mg/kg/injection, schedule: Q01DX009 (ip), vehicle: saline): 99 % of control
- T/C [3]: 106 % of control
- T/C [4]: 100 % of control
